{"source": "ChEMBL document CHEMBL5723035", "about": "“Affinity Biochemical Literature for EUbOPEN Chemogenomic Library” (2024)", "key": {"[1]": {"target": "Caspase-7 (Homo sapiens, UniProt P55210)", "sequence (P55210 24-198 limits assumed)": "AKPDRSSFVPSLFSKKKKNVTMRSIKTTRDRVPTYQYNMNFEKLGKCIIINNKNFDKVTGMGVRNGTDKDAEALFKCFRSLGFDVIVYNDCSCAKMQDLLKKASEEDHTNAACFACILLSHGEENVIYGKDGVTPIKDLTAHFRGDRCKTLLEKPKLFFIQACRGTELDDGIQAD", "sequence (P55210 207-303 limits assumed)": "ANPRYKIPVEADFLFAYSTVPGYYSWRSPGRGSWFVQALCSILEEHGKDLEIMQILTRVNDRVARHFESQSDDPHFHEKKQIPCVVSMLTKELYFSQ", "test": "Affinity Biochemical interaction: (enzymatic assay (fluorogenic substrate cleavage)) EUB0002173aAD CASP7", "type": "functional", "design": "mode of action Inhibitor, recommended concentration 1 uM"}, "[2]": {"target": "Caspase-10 (Homo sapiens, UniProt Q92851)", "test": "Affinity Biochemical interaction: (enzymatic assay (fluorogenic substrate cleavage)) EUB0002173aAD CASP10", "type": "functional", "design": "mode of action Inhibitor, recommended concentration 1 uM"}, "[3]": {"target": "T1, Caspase-8 (Homo sapiens, UniProt Q14790)", "T1 sequence (Q14790 217-374 limits assumed)": "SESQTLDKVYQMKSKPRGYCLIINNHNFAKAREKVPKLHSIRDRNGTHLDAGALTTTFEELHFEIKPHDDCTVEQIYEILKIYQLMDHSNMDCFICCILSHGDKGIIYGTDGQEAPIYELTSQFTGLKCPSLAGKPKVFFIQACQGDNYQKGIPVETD", "T1 sequence (Q14790 385-479 limits assumed)": "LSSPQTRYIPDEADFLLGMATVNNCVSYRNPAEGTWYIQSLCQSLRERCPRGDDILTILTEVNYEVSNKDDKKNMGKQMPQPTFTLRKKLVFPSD", "test": "Affinity Biochemical interaction: (enzymatic assay (fluorogenic substrate cleavage)) EUB0002173aAD CASP8", "type": "functional", "design": "mode of action Inhibitor, recommended concentration 1 uM"}, "[4]": {"target": "T2, Histone-lysine N-methyltransferase EZH1 (Homo sapiens, UniProt Q92800)", "T2 sequence (Q92800 whole entry)": "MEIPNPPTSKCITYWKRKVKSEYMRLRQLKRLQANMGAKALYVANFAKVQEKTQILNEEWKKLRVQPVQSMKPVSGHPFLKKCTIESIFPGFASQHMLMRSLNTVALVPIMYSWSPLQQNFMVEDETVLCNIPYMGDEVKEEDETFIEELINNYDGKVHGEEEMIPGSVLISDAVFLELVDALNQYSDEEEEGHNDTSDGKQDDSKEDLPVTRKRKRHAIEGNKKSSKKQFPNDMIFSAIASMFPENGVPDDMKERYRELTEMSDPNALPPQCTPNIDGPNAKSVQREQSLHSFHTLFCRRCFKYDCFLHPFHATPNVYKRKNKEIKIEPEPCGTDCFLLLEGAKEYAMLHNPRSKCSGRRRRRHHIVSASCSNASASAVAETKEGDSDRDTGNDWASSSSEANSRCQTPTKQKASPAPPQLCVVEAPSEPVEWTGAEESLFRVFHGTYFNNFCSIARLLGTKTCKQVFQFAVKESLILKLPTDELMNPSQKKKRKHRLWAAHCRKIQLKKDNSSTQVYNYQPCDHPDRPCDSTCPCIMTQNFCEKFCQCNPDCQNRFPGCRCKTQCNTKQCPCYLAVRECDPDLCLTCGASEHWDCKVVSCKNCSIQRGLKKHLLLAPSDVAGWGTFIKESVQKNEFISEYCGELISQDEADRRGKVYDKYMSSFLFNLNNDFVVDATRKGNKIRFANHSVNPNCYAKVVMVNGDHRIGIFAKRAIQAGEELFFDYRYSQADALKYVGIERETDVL", "test": "Affinity Biochemical interaction: (inhibition of EZH1 for both SAM and peptide substrates using a Flashplate assay to measure the transfer of a tritiated methyl group from SAM to the peptide) EUB0002228a EZH1", "type": "functional", "design": "mode of action Inhibitor, recommended concentration 1 uM"}, "[5]": {"target": "T2, Histone-lysine N-methyltransferase EZH1", "test": "Affinity Biochemical interaction: (ELISA-based protein substrate methylation assay) EUB0002228a EZH1", "type": "functional", "design": "mode of action Inhibitor, recommended concentration 1 uM"}, "[6]": {"target": "Histone deacetylase 3 (Homo sapiens, UniProt O15379)"}, "[7]": {"target": "T3, Caspase-3 (Homo sapiens, UniProt P42574)", "T3 sequence (P42574 whole entry)": "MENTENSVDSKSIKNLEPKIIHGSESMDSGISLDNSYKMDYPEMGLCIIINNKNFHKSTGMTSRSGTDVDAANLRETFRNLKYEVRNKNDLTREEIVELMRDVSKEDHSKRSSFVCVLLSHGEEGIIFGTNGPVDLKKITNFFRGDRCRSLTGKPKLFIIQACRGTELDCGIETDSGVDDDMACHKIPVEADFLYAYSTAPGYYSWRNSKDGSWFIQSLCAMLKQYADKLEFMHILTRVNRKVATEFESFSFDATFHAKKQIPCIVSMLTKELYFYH", "test": "Affinity Biochemical interaction: (enzymatic assay (fluorogenic substrate cleavage)) EUB0002175aAD CASP3", "type": "functional", "design": "mode of action Inhibitor, recommended concentration 1 uM"}, "[8]": {"target": "Cathepsin B (Homo sapiens, UniProt P07858)", "test": "Affinity Biochemical interaction: (Colorimetric assay, lysis of casein substrate and analysis of protease inhibition by reading wavelength at 595 nm) EUB0002195a CTSB", "type": "functional", "design": "mode of action Inhibitor, recommended concentration 1 uM"}, "[9]": {"target": "Calpain-2 catalytic subunit (Homo sapiens, UniProt P17655)", "test": "Affinity Biochemical interaction: (Colorimetric assay, lysis of casein substrate and analysis of protease inhibition by reading wavelength at 595 nm) EUB0002195a CAPN2", "type": "functional", "design": "mode of action Inhibitor, recommended concentration 1 uM"}, "[10]": {"target": "Procathepsin L (Homo sapiens, UniProt P07711)", "test": "Affinity Biochemical interaction: (Colorimetric assay, lysis of casein substrate and analysis of protease inhibition by reading wavelength at 595 nm) EUB0002195a CTSL", "type": "functional", "design": "mode of action Inhibitor, recommended concentration 1 uM"}, "[11]": {"test": "Affinity Biochemical interaction: (inhibition of enzyme activity, competitive binding assay (fluorescent substrate cleavage)) EUB0002137aAD CAPN2"}, "[12]": {"target": "T1, Caspase-8", "test": "Affinity Biochemical interaction: (enzymatic assay (fluorogenic substrate cleavage)) EUB0002198aAD CASP8", "type": "functional", "design": "mode of action Inhibitor, recommended concentration 1 uM"}, "[13]": {"target": "Caspase-1 (Homo sapiens, UniProt P29466)", "test": "Affinity Biochemical interaction: (enzymatic assay (fluorogenic substrate cleavage)) EUB0002198aAD CASP1", "type": "functional", "design": "mode of action Inhibitor, recommended concentration 1 uM"}, "[14]": {"target": "T4, Histone acetyltransferase KAT7 (Homo sapiens, UniProt O95251)", "T4 sequence (O95251 whole entry)": "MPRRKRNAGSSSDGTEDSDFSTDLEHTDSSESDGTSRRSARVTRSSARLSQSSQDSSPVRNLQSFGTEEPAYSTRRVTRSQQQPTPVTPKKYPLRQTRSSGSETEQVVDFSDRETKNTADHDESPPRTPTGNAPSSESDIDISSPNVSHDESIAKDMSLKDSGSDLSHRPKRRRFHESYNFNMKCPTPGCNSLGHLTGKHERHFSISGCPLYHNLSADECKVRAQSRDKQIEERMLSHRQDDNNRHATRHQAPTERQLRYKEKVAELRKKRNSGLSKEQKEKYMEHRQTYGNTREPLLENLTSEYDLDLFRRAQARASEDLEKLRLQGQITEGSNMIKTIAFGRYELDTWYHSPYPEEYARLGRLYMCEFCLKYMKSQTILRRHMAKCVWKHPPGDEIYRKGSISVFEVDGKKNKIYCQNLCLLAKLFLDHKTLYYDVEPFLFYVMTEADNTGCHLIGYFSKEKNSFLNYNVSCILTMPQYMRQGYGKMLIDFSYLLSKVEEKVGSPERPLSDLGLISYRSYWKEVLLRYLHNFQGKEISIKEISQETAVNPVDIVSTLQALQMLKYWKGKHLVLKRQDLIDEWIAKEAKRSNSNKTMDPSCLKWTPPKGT", "test": "Affinity Biochemical interaction: (SPR) EUB0001094a MYST2", "design": "mode of action Inhibitor, recommended concentration 1 uM"}, "[15]": {"target": "T5, Histone acetyltransferase KAT6A (Homo sapiens, UniProt Q92794)", "T5 sequence (Q92794 whole entry)": "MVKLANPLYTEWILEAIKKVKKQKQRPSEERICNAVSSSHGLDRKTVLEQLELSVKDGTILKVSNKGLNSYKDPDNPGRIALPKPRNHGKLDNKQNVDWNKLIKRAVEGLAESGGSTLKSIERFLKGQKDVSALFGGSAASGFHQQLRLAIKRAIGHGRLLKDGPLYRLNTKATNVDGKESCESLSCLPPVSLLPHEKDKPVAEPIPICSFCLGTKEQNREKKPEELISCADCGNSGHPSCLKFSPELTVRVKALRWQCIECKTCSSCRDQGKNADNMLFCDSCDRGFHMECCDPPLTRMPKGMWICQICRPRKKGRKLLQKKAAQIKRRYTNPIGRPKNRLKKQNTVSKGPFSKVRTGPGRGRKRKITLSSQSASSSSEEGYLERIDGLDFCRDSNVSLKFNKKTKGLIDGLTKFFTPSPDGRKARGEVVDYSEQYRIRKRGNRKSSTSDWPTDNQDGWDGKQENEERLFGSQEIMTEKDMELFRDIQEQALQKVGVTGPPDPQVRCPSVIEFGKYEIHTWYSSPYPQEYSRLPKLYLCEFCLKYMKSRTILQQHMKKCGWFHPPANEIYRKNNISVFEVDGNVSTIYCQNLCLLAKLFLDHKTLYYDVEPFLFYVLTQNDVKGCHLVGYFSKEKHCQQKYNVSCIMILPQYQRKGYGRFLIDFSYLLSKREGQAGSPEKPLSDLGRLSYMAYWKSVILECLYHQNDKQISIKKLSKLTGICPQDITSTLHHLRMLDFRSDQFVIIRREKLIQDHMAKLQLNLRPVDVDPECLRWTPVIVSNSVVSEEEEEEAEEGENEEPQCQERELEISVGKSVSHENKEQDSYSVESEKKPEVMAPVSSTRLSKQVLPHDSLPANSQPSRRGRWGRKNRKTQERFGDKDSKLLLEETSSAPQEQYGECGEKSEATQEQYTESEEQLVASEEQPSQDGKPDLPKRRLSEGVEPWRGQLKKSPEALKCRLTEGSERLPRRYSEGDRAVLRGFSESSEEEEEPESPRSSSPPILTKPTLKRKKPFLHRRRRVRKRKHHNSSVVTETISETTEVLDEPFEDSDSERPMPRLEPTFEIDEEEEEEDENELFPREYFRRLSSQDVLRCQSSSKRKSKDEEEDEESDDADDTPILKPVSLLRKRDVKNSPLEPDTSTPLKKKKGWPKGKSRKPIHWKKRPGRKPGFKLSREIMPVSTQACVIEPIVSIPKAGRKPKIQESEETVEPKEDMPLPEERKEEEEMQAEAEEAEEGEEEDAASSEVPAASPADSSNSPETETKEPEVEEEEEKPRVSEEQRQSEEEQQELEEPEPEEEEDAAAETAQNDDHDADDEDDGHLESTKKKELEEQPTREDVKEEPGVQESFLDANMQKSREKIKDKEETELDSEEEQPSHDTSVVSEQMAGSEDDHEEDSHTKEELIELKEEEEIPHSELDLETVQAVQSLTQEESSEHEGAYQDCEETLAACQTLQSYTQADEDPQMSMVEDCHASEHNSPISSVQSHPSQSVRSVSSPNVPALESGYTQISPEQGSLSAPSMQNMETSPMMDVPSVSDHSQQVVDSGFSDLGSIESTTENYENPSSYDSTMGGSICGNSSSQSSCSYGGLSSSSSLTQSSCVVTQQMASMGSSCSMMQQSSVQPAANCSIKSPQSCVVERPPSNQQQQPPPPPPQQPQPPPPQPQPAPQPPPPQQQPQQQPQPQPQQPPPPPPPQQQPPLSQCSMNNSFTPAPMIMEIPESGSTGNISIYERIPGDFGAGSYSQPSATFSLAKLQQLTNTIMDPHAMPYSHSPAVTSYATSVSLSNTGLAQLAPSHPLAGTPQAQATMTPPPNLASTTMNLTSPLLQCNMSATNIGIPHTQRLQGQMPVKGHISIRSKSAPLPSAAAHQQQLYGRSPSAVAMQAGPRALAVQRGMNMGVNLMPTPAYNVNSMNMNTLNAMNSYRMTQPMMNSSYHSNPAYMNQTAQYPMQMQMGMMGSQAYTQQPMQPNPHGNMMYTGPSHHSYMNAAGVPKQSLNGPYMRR", "test": "Affinity Biochemical interaction: (SPR) EUB0001094a MYST3", "design": "mode of action Inhibitor, recommended concentration 1 uM"}, "[16]": {"target": "T4, Histone acetyltransferase KAT7", "test": "Affinity Biochemical interaction: (AlphaScreen) EUB0001094a MYST2", "type": "functional", "design": "mode of action Inhibitor, recommended concentration 1 uM"}, "[17]": {"target": "T5, Histone acetyltransferase KAT6A", "test": "Affinity Biochemical interaction: (AlphaScreen) EUB0001094a MYST3", "type": "functional", "design": "mode of action Inhibitor, recommended concentration 1 uM"}, "[18]": {"target": "Caspase-4 (Homo sapiens, UniProt P49662)", "sequence (P49662 81-270 limits assumed)": "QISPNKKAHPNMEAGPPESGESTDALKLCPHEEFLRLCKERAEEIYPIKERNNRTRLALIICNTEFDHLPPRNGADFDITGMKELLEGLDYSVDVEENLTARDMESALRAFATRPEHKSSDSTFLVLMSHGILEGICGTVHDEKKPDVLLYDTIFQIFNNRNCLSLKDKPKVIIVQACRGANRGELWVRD", "sequence (P49662 290-377 limits assumed)": "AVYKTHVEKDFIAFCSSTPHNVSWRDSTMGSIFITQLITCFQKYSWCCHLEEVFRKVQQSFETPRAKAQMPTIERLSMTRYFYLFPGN", "test": "Affinity Biochemical interaction: (enzymatic assay (fluorogenic substrate cleavage)) EUB0002201a CASP4", "type": "functional", "design": "mode of action Inhibitor, recommended concentration 1 uM"}, "[19]": {"target": "T6, Bromodomain-containing protein 2 (Homo sapiens, UniProt P25440)", "T6 sequence (P25440 whole entry)": "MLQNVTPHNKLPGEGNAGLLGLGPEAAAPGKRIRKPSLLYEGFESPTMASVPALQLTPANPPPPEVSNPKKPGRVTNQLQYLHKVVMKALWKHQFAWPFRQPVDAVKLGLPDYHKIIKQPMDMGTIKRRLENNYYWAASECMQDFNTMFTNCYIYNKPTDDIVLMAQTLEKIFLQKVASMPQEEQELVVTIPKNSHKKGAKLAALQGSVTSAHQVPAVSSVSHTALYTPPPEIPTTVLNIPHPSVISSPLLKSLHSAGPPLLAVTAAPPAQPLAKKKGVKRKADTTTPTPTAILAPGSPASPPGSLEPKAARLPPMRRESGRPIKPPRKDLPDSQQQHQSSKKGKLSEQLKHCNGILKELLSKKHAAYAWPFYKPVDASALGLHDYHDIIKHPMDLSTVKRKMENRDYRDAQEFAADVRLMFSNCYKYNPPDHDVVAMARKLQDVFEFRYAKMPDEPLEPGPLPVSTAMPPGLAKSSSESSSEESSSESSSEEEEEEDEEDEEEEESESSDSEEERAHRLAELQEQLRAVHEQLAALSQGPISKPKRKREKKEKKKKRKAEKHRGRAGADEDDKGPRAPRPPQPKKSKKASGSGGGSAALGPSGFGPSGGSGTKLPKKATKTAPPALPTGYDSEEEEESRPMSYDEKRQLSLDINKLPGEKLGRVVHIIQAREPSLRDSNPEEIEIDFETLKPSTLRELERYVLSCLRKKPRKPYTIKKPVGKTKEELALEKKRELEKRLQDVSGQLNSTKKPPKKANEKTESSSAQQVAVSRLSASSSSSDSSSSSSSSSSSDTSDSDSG", "test": "(§1) Affinity Biochemical interaction: (BROMOscan assay) EUB0002282a BRD2", "design": "mode of action Inhibitor, recommended concentration 1 uM"}, "[20]": {"target": "T7, Bromodomain-containing protein 3 (Homo sapiens, UniProt Q15059)", "test": "(§2) Affinity Biochemical interaction: (BROMOscan assay) EUB0002282a BRD3", "design": "mode of action Inhibitor, recommended concentration 1 uM"}, "[21]": {"target": "Bromodomain testis-specific protein (Homo sapiens, UniProt Q58F21)", "test": "Affinity Biochemical interaction: (BROMOscan assay) EUB0002282a BRDT", "design": "mode of action Inhibitor, recommended concentration 1 uM"}, "[22]": {"target": "T8, Bromodomain-containing protein 4 (Homo sapiens, UniProt O60885)", "test": "(§3) Affinity Biochemical interaction: (AlphaLISA) EUB0002282a BRD4", "type": "functional", "design": "mode of action Inhibitor, recommended concentration 1 uM"}, "[23]": {"target": "T6, Bromodomain-containing protein 2", "test": "as §1", "design": "mode of action Inhibitor, recommended concentration 1 uM", "remark": "listed apart in the source"}, "[24]": {"target": "T8, Bromodomain-containing protein 4", "test": "as §3", "type": "functional", "design": "mode of action Inhibitor, recommended concentration 1 uM", "remark": "listed apart in the source"}, "[25]": {"target": "T7, Bromodomain-containing protein 3", "test": "as §2", "design": "mode of action Inhibitor, recommended concentration 1 uM", "remark": "listed apart in the source"}, "[26]": {"target": "Caspase-9 (Homo sapiens, UniProt P55211)", "test": "Affinity Biochemical interaction: (peptide substrate detection probe bound to magnetic beads, detection of liberated fluorophores) EUB0002203aAD CASP9", "type": "functional", "design": "mode of action Inhibitor, recommended concentration 1 uM"}, "[27]": {"target": "T1, Caspase-8", "test": "Affinity Biochemical interaction: (enzymatic assay (fluorogenic substrate cleavage)) EUB0002177aAD CASP8", "type": "functional", "design": "mode of action Inhibitor, recommended concentration 1 uM"}}, "note": "Residues, ends and D or L forms follow the SMILES beside them. *: point of attachment. CH2Cl = ClC*"}
{"molecule": "CC(=O)N[C@@H](CC(=O)O)C(=O)N[C@@H](CCC(=O)O)C(=O)N[C@H](C(=O)N[C@H](C=O)CC(=O)O)C(C)C", "values": [{"measurement": "Ki", "setting": "[1]", "value": 1.6, "unit": "nM"}, {"measurement": "Ki", "setting": "[2]", "value": 12, "unit": "nM"}, {"measurement": "Ki", "setting": "[3]", "value": 0.92, "unit": "nM"}]}
{"molecule": "CCN(c1cc(C#CCN2CCOCC2)cc(C(=O)NCc2c(C)cc(C)[nH]c2=O)c1C)[C@H]1CC[C@H](N(C)CCOC)CC1", "values": [{"measurement": "Ki", "setting": "[4]", "value": 45, "unit": "nM"}, {"measurement": "IC50", "setting": "[5]", "value": 103, "unit": "nM"}]}
{"molecule": "CN(C)Cc1ccc(S(=O)(=O)n2ccc(/C=C/C(=O)NO)c2)cc1", "values": [{"measurement": "IC50", "setting": "[6]", "value": 50.1, "unit": "nM"}]}
{"molecule": "CSCC[C@H](NC(=O)[C@H](CC(=O)O)NC(C)=O)C(=O)N[C@@H](CCC(N)=O)C(=O)N[C@H](C=O)CC(=O)O", "note": "(Ac-DMQD-aldehyde)", "values": [{"measurement": "Ki", "setting": "[7]", "value": 13.3, "unit": "nM"}]}
{"molecule": "CC(C)C[C@@H](C=O)NC(=O)[C@@H](NS(=O)(=O)c1ccc(F)cc1)C(C)C", "values": [{"measurement": "IC50", "setting": "[8]", "value": 15, "unit": "nM"}, {"measurement": "IC50", "setting": "[9]", "value": 78, "unit": "nM"}, {"measurement": "IC50", "setting": "[10]", "value": 1.6, "unit": "nM"}]}
{"molecule": "CCC(NC(=O)C(CC(C)C)NC(=O)OCc1ccccc1)C(=O)C(=O)NCCCN1CCOCC1", "note": "(configuration not stated)", "values": [{"measurement": "Ki", "setting": "[11]", "value": 41, "unit": "nM"}]}
{"molecule": "CC(=O)N[C@@H](CC(C)C)C(=O)N[C@@H](CCC(=O)O)C(=O)N[C@@H](Cc1cnc[nH]1)C(=O)N[C@H](C=O)CC(=O)O", "note": "(Ac-LEHD-aldehyde)", "values": [{"measurement": "IC50", "setting": "[12]", "value": 3.82, "unit": "nM"}, {"measurement": "IC50", "setting": "[13]", "value": 15, "unit": "nM"}]}
{"molecule": "Cc1cc(-c2ccccc2)cc(C(=O)NNS(=O)(=O)c2cccc(O)c2)c1F", "values": [{"measurement": "Kd", "setting": "[14]", "value": 34, "unit": "nM"}, {"measurement": "Kd", "setting": "[15]", "value": 7, "unit": "nM"}, {"measurement": "IC50", "setting": "[16]", "value": 30, "unit": "nM"}, {"measurement": "IC50", "setting": "[17]", "value": 17, "unit": "nM"}]}
{"molecule": "CC(=O)N[C@@H](CC(C)C)C(=O)N[C@@H](CCC(=O)O)C(=O)N[C@H](C(=O)N[C@H](C=O)CC(=O)O)C(C)C", "note": "(Ac-LEVD-aldehyde)", "values": [{"measurement": "IC50", "setting": "[18]", "value": 84, "unit": "nM"}]}
{"molecule": "Cc1cc(-c2ccc3nc(C4CCOCC4)n(CCOC(F)(F)F)c3c2)cn(C)c1=O", "values": [{"measurement": "Kd", "setting": "[19]", "value": 5.2, "unit": "nM"}, {"measurement": "Kd", "setting": "[20]", "value": 2.3, "unit": "nM"}, {"measurement": "Kd", "setting": "[21]", "value": 3.1, "unit": "nM"}, {"measurement": "Kd", "setting": "[22]", "value": 6.5, "unit": "nM"}, {"measurement": "Kd", "setting": "[23]", "value": 3.2, "unit": "nM"}, {"measurement": "Kd", "setting": "[24]", "value": 7.6, "unit": "nM"}, {"measurement": "Kd", "setting": "[25]", "value": 2.9, "unit": "nM"}]}
{"molecule": "CC(=O)N[C@@H](CC(C)C)C(=O)N[C@@H](CCC(=O)O)C(=O)N[C@@H](Cc1cnc[nH]1)C(=O)N[C@@H](CC(=O)O)C(=O)CCl", "note": "(Ac-LEHD-CH2Cl)", "values": [{"measurement": "IC50", "setting": "[26]", "value": 72.8, "unit": "nM"}]}
{"molecule": "CC[C@H](C)[C@H](NC(C)=O)C(=O)N[C@@H](CCC(=O)O)C(=O)N[C@H](C(=O)N[C@H](C=O)CC(=O)O)[C@@H](C)O", "note": "(Ac-IETD-aldehyde)", "values": [{"measurement": "IC50", "setting": "[27]", "value": 5, "unit": "nM"}]}
